Experimental data: ChEMBL document CHEMBL1201862, “PubChem BioAssay data set” (2004)
Active and inactive are the calls of the source.

How the values were obtained:
[1] = NIH-3T3 fibroblast cytotoxicity, dose response, cytotoxicity control, cell-based, fluorescence, Alamar Blue, secondary assay (AID 2327); format: functional;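 note: NIH-3T3 mouse fibroblasts cultured with fluconazole at 8 µg/mL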
[2] = C. albicans growth with fluconazole, confirmation, fluorescence, retest (AID 2467); format: functional, cell-based
[3] = molecular target: Protein Wnt-3a (Mus musculus, UniProt P27467); assay: Wnt3a-driven reporter signaling inhibition, dose response, selectivity assay for Gli-SUFU antagonist project, Wnt-LIGHT cells, luminescence (AID 651570); format: functional; settings: read-out: IC50_Mean;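 note: Wnt-LIGHT reporter cells stimulated with conditioned medium from Wnt3a-producing cells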
[4] = inhibitors of intracellular T. cruzi replication, confirmation, NIH3T3 host cells, beta-gal luminescence (AID 2044); format: functional, cell-based;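 note: intracellular parasites grown in NIH/3T3 mouse fibroblasts as host cells; luminescent beta-galactosidase reporter signal from transgenic T. cruzi replicating inside host cells; inhibitors lower the luminescence signal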
[5] = cytotoxicity toward NIH3T3 fibroblasts, dose response, counter-screen, cell-based, ATP luminescence, mouse fibroblasts (AID 2010); format: functional;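 note: cells exposed to compound for about 90 hours before reading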
[6] = molecular target: ADP-ribosylation factor GTPase-activating protein 1 (Rattus norvegicus, UniProt Q62848); assay: Fluorescence polarization-based biochemical high throughput dose response screening assay to identify inhibitors of ADP-ribosylation factor GTPase activating protein 1 (ARFGAP1).; format: functional
[7] = molecular target: T1, RNA-binding protein pos-1 (Caenorhabditis elegans, UniProt G5EF15); assay: inhibitors of POS-1/mex-3 RNA binding, dose response, biochemical, fluorescence polarization (AID 1964);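 note: purified POS-1 fused to maltose binding protein made in E. coli; potency of compounds blocking POS-1 binding to fluorescent RNA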
T1 sequence (G5EF15 whole entry): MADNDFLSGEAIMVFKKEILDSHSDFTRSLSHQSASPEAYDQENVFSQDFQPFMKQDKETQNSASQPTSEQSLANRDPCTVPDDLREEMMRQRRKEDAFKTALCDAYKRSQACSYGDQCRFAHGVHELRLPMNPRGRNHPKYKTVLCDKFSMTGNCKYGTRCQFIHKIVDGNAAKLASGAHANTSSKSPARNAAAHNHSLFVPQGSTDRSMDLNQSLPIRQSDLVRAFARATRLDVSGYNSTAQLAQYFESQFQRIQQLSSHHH

[8] = molecular target: T2, Zinc finger protein mex-5 (Caenorhabditis elegans, UniProt Q9XUB2); assay: MEX-5/TCR-2 RNA interaction inhibitors, dose response, biochemical, C. elegans, fluorescence polarization (AID 1960)
T2 sequence (Q9XUB2 whole entry): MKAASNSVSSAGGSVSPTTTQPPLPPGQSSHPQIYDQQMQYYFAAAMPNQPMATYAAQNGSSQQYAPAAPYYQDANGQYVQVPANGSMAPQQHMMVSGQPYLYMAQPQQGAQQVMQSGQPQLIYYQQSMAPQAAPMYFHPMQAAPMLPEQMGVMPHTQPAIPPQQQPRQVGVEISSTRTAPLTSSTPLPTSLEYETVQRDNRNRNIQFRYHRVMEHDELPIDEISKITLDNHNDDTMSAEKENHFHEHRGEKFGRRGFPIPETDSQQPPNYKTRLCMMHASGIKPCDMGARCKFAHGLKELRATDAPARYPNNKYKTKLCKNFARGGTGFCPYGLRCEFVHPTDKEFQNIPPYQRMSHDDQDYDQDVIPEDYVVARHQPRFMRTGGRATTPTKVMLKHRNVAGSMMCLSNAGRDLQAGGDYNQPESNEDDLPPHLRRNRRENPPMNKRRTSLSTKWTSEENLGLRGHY

[9] = molecular target: T3, Carboxy-terminal domain RNA polymerase II polypeptide A small phosphatase 1 (Homo sapiens, UniProt Q9GZU7); assay: inhibitors of CTDSP1, concentration-response testing, biochemical assay, absorbance-based, actives from ultra-high-throughput screening (AID 540297); format: functional
T3 sequence (Q9GZU7 whole entry): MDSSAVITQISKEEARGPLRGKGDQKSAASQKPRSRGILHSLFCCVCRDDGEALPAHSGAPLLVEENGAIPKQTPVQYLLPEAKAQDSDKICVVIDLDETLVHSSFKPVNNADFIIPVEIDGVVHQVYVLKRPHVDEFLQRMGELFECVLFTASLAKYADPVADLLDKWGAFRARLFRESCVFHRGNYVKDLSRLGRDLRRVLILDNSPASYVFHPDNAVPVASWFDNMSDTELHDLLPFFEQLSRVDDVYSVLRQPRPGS

[10] = molecular target: DNA (cytosine-5)-methyltransferase 1 (Homo sapiens, UniProt P26358); assay: DNMT1 methyltransferase inhibitors, confirmation, biochemical, fluorescent molecular beacon (AID 602386); format: functional
[11] = molecular target: T4, Histone-lysine N-methyltransferase NSD2 (Homo sapiens, UniProt O96028); format: biochemical
T4 sequence (O96028 whole entry): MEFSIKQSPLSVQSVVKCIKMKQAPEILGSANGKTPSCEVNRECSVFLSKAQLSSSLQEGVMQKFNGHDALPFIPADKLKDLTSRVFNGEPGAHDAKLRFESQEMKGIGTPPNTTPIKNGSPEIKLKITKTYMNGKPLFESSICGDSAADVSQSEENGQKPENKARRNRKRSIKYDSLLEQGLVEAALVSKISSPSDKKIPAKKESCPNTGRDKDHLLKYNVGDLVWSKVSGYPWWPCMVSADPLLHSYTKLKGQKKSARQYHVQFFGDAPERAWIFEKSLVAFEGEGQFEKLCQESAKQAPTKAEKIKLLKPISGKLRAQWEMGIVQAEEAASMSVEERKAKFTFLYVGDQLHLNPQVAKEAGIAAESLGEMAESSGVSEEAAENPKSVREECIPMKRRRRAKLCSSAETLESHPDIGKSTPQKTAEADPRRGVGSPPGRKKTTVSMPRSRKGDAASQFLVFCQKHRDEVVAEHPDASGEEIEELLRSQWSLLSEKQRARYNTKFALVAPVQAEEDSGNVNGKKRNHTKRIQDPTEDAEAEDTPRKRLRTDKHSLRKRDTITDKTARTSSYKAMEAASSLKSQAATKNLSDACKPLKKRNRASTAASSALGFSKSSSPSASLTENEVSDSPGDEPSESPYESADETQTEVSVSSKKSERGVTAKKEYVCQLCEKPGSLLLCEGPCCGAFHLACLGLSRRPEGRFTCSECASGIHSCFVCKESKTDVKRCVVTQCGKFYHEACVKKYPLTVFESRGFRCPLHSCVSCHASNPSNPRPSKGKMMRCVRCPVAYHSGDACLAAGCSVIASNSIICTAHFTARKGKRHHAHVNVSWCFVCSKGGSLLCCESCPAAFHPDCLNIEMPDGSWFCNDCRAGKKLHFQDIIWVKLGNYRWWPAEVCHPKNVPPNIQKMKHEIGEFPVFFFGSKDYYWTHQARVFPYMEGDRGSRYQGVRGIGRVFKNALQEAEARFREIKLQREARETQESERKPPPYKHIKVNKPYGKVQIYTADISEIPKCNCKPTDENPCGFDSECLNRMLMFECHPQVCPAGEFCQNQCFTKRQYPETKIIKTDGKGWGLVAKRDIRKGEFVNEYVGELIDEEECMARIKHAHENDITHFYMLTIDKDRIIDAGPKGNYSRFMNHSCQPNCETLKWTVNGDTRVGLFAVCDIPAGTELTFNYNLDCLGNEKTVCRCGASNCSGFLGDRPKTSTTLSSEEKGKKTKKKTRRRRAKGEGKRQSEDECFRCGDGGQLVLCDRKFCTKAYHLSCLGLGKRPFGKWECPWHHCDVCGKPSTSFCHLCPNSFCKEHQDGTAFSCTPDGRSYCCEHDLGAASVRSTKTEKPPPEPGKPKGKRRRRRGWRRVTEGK

[12] = HEp-2 cell cytotoxicity, dose response, cytotoxicity control for RSV inhibitor project, HTS (AID 2410); format: functional; settings: human respiratory syncytial virus
[13] = HIV-1 Env-mediated cell fusion inhibitors, dose response, CCR5-tropic Env (AID 2279); format: functional
[14] = molecular target: Induced myeloid leukemia cell differentiation protein Mcl-1 (Homo sapiens, UniProt Q07820); format: functional
[15] = Luminescence Cell-Based Dose Retest to Confirm Inhibitors of Cancer Stem Cells. [Related pubchem assays (depositor defined):AID2717, AID2721]; format: functional; settings: Homo sapiens
[16] = molecular target: T5, Methionyl-tRNA synthetase, putative (Trypanosoma brucei brucei, UniProt Q38C91); format: functional, Trypanosoma brucei brucei strain 927/4 GUTat10.1
T5 sequence (Q38C91 whole entry): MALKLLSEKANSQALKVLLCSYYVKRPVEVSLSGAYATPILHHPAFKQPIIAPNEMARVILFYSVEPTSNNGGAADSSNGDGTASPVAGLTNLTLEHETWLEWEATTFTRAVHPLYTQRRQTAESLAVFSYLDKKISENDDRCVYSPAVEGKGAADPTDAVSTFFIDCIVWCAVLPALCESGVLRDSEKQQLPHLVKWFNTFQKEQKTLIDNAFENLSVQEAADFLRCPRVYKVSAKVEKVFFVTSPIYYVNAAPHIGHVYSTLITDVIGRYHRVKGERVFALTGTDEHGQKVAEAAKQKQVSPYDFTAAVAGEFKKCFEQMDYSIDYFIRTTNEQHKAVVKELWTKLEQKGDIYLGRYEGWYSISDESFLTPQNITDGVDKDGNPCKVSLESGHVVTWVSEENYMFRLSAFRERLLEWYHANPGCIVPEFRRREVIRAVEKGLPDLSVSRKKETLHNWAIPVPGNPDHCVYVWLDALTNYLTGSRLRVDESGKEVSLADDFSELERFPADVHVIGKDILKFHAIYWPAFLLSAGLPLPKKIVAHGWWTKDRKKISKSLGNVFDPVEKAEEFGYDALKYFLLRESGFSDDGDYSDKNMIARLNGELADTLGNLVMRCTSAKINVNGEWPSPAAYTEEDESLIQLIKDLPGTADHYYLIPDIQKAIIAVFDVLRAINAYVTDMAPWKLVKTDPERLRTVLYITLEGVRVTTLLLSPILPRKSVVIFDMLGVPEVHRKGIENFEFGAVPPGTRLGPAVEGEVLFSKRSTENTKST

[17] = Counterscreen for inhibitors of Trypanosoma brucei methionyl tRNA synthetase (MetRS): Luminescence-based cell-based high throughput dose response assay to identify compounds that are cytotoxic to Jurkat human T lymphocyte cells.; format: functional
[18] = molecular target: T5, Methionyl-tRNA synthetase, putative; format: functional, Trypanosoma brucei brucei strain 927/4 GUTat10.1; remark: listed apart in the source
[19] = cytotoxicity in HEK-293T cells, dose response, cytotoxicity control for TCR NF-kB inhibitor project, luminescence, T-cell screen hits (AID 489026); format: functional, cell-based;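 note: cells exposed to compound about 14 hours before the viability readout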
[20] = molecular target: Photoreceptor-specific nuclear receptor (Homo sapiens, UniProt Q9Y5X4); format: functional, cell-based;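 note: CHO-S cells with Gal4-NCOR and VP16-NR2E3 two-hybrid luciferase reporter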
[21] = molecular target: T6, Sentrin-specific protease 8 (Homo sapiens, UniProt Q96LD8); format: functional
T6 sequence (Q96LD8 whole entry): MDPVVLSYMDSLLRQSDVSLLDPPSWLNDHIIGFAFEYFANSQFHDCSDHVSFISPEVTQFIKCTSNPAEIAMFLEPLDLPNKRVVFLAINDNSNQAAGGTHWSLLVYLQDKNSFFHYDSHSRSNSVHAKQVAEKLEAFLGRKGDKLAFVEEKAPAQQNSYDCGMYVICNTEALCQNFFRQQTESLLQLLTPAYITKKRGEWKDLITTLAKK

[22] = molecular target: T6, Sentrin-specific protease 8; format: functional; remark: listed apart in the source
[23] = miR-122 activators in hepatoma reporter cells, dose response, cell-based, Huh7 psiCHECK-miR122, Renilla luciferase, cherry-picked (AID 651956); format: functional;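 note: huh7 hepatoma cells stably carrying a psiCHECK-2 miR-122 sensor plasmid; renilla luciferase signal reporting endogenous miR-122 activity after 48 h compound exposure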
[24] = HEK293T cytotoxicity, dose response, cytotoxicity control for miR-122 modulator project, cell-based, inhibitor set, cherry-pick, set 2 (AID 720697); format: functional
[25] = molecular target: Hepatocyte nuclear factor 4-alpha (Homo sapiens, UniProt P41235); format: functional, cell-based;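 note: biochemical luminescence-based dose-response counterscreen measuring inhibition of HNF4 dimerization, run alongside a screen for blockers of ABHD5–perilipin-5 interaction; split luciferase complementation of HNF4 fusion proteins in cell lysate measuring dimerization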
[26] = molecular target: T7, Mitochondrial peptide methionine sulfoxide reductase (Bos taurus, UniProt P54149); format: functional;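 note: absorbance read-out, biochemical high-throughput dose-response screen for MsrA inhibitors, confirmatory; recombinant bovine MsrA coupled to E. coli TrxB with NADPH and selenocystamine; potency is for inhibitors of MsrA activity on DMSO substrate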
T7 sequence (P54149 whole entry): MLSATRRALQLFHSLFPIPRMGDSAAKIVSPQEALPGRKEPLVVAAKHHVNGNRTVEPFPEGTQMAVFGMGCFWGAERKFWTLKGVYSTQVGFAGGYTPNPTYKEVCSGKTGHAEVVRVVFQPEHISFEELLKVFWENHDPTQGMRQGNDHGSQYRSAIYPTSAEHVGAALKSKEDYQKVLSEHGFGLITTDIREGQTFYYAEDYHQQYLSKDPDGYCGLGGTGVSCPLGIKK

DNA (cytosine-5)-methyltransferase 1, sequence (P26358 whole entry): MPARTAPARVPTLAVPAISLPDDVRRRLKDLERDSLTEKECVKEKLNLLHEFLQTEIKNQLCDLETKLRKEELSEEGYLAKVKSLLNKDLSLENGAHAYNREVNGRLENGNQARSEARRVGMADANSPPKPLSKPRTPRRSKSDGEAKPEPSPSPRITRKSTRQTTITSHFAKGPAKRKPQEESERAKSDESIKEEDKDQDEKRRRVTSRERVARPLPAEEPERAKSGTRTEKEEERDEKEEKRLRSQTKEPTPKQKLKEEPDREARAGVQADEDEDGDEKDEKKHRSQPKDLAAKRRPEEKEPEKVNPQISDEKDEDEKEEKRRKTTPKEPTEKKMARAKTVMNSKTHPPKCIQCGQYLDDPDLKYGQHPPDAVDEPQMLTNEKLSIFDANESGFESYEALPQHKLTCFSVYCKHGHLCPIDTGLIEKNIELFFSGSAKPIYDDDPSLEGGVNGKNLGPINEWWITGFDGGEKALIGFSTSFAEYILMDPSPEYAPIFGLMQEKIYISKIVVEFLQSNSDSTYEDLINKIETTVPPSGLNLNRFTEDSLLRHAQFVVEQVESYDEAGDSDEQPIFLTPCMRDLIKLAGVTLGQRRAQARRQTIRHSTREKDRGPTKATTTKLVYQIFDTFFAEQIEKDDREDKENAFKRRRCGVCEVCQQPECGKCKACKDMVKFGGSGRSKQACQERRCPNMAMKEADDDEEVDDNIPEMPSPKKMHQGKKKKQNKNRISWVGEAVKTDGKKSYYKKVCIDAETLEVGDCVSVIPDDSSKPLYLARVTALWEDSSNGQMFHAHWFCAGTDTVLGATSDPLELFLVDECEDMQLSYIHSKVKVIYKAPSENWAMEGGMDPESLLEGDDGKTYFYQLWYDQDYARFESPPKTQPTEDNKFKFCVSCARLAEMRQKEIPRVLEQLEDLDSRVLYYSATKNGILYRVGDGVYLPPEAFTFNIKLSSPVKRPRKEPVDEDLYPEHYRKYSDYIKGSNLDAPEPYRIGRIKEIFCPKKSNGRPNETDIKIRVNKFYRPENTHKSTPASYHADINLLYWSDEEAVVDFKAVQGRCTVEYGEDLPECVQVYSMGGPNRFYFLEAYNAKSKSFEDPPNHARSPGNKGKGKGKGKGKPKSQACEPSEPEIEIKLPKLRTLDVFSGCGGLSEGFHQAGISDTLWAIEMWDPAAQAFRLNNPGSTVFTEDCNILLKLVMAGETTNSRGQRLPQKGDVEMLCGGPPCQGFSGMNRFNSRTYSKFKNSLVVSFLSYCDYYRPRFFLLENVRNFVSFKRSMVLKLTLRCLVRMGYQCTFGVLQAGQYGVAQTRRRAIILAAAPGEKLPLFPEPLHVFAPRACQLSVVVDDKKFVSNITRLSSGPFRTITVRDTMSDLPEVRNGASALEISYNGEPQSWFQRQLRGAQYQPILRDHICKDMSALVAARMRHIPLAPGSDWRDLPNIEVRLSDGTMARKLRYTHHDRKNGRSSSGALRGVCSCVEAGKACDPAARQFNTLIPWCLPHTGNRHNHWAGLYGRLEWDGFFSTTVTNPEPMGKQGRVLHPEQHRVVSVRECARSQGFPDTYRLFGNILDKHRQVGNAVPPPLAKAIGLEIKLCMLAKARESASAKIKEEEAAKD
Protein Wnt-3a, sequence (P27467 whole entry): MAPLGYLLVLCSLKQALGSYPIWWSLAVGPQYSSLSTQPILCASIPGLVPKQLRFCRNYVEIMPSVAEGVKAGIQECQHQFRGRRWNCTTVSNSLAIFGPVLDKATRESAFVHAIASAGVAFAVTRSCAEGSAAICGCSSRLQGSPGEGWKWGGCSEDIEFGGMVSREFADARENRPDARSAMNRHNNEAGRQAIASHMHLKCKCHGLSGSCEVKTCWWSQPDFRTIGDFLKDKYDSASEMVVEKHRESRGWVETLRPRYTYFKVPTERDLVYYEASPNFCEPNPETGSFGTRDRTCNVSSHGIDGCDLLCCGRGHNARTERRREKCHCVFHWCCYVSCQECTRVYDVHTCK
Induced myeloid leukemia cell differentiation protein Mcl-1, sequence (Q07820 whole entry): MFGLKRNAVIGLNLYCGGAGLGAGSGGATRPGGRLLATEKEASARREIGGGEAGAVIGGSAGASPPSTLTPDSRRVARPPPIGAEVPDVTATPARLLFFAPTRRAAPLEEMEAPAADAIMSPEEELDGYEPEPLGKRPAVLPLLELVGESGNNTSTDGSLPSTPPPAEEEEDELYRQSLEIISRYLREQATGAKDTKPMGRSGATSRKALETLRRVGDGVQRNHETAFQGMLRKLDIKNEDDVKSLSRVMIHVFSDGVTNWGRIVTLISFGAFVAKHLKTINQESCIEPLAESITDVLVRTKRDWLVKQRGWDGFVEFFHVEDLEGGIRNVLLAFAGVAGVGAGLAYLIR
Photoreceptor-specific nuclear receptor, sequence (Q9Y5X4 whole entry, the tested form may be a part): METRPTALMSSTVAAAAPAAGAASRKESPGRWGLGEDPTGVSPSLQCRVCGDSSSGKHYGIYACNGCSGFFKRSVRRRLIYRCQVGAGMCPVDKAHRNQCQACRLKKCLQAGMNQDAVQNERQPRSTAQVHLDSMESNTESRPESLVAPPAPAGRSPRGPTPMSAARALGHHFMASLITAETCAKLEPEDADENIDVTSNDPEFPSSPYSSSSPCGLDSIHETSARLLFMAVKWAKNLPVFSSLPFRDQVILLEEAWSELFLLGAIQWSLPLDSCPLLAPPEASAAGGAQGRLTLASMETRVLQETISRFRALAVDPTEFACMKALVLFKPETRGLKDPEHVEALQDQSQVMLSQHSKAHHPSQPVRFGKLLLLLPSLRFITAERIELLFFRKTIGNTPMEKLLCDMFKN
ADP-ribosylation factor GTPase-activating protein 1, sequence (Q62848 whole entry, the tested form may be a part): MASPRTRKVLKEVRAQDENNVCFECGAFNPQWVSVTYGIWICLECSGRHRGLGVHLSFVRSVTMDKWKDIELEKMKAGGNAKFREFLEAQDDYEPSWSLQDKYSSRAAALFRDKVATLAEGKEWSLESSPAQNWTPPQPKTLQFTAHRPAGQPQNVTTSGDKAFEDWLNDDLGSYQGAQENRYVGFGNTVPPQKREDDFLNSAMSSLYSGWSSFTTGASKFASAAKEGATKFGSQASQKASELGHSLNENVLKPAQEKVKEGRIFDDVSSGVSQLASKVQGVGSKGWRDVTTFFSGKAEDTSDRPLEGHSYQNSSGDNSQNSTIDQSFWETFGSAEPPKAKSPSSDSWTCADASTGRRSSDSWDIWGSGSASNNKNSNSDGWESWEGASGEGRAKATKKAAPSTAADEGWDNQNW
Hepatocyte nuclear factor 4-alpha, sequence (P41235 whole entry, the tested form may be a part): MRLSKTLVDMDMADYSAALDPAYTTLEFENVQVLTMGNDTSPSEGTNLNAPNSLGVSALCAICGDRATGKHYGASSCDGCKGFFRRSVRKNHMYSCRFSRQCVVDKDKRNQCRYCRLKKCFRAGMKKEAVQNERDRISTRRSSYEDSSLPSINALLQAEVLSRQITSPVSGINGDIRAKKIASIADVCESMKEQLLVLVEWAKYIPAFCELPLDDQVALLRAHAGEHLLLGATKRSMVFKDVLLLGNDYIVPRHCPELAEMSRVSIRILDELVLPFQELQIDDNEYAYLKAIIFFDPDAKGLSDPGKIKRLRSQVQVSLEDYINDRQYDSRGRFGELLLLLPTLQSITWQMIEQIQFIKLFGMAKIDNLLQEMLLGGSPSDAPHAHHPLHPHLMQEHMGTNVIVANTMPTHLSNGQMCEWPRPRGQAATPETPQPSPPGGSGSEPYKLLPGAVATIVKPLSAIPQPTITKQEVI

Compound: Cc1c(CCOC(=O)C23CC4CC(CC(C)(C4)C2)C3)sc[n+]1Cc1ccccc1
- EC50 [1]: > 150 µM (inactive)
- EC50 [2]: 2.08 µM (active)
- IC50 [3]: 32 µM (inactive)

Compound: COc1ccccc1CCNC(=O)c1cc(-c2ccncc2)nc2ccc(Br)cc12
- EC50 [4]: 0.874 µM (active)
- EC50 [5]: > 60 µM (not active)
- IC50 [3]: 10.9 µM (active)

Compound: COc1ccc(-n2nc3c(N4CCC(C(=O)NCc5ccccc5)CC4)nnc(C)c3c2C)cc1
- IC50 [6]: 40.6 µM (inactive)

Compound: CCOc1cccc(N2C(=O)/C(=C/c3ccco3)C(=O)NC2=S)c1
- EC50 [7]: > 300 µM (not active)
- EC50 [8]: > 300 µM (not active)
- IC50 [9]: 1.6 µM (active)
- IC50 [10]: 4.24 µM (active)
- AC50 [11]: 1.04 µM (active)

Compound: O=C(O)CCCCCN1C(=O)/C(=C\c2cn(-c3ccccc3)nc2-c2cccs2)SC1=S
- CC50 [12]: 12 µM (active)
- IC50 [13]: 37.4 µM (active)
- IC50 [14]: 2.31 µM (active)
- AC50 [15]: 3.54 µM (active)
- IC50 [10]: 6.97 µM (active)

Compound: Cc1nnc(NC(=O)CSc2n[nH]c3c4cc(Br)ccc4nc-3n2)s1
- IC50 [16]: 3.87 µM (active)
- IC50 [17]: 83.3 µM (inactive)
- IC50 [18]: 1.36 µM (active)

Compound: COc1cc2nc(CN3CC=C(c4ccccc4)CC3)nc(O)c2cc1OC
- AC50 [15]: 0.609 µM (active)
- IC50 [19]: > 80 µM (inactive)
- IC50 [20]: 0.0655 µM (active)

Compound: O=C1NC(=O)C(Nc2ccc(Cl)c(Cl)c2)C(=O)N1
- IC50 [21]: 8.82 µM (active)
- IC50 [22]: 10.9 µM (active)

Compound: Cc1cc(C(=O)Nc2ccc3c(c2)C(=O)N(C)[C@@H]2CC[C@H](CC(=O)N[C@@H](C)c4ccccc4)O[C@H]2CO3)no1
- AC50 [23]: 57.6 µM (active)
- AC50 [24]: 1.12 µM (active)

Compound: O=C(Nc1ccc2c(c1)OCCO2)C(c1ccnc2ccccc12)n1c(=O)c(-c2ccco2)nc2ccccc21 (centres undefined)
- IC50 [25]: 18.9 µM (inactive)

Compound: COc1ccc(/C=N/n2c(S)nnc2C2CCCCC2)c(OC)c1
- IC50 [26]: 155 µM (inactive)
